Results published in patent US9120787B2, “HIV replication inhibitors” (priority 2011, dated 2015).

Legend:
[1] = Cytotoxicity by MTS staining in uninfected MAGI-CCR5 cells; assay type: cell-based; details: human, read-out: TC50
Method: The anti-viral activity of dihydropyrimidines was shown by inhibition of virus replication in MAGI-CCR5 cells. MAGI-CCR5 cells are derived from HeLa-CD4-LTR-β-galactosidase cells. The cells have been engineered to express high levels of CD4 and CCR5 and contain one copy of the HIV-1 LTR promoter driving expression of the β-galactosidase gene upon HIV-1 Tat transactivation. On the day preceding the assay, the cells were plated at 1.0×10^4 cells per well and maintained at 37° C. and 5% CO2 in a humidified incubator. Total cell count and viability was visually assessed using a hemacytometer and trypan blue exclusion. Compounds were evaluated at six concentrations (triplicate wells/concentration). On the day of assay setup, compound dilutions were prepared at two-times (2×) the final concentrations. Media was decanted and wells were replenished with 50 μl of 2× compounds, followed by the addition of 50 μl of diluted virus. Identical uninfected assays were prepared for parallel cytotoxicity testing.

HIV-1Ba-L [2] = test: Inhibition of virus replication in MAGI-CCR5 cells (β-galactosidase reporter); assay type: cell-based; details: HIV-1Ba-L in MAGI-CCR5 cells; for IC50: 48 hours, β-galactosidase reporter expression, read-out: IC50
Method: The anti-viral activity of dihydropyrimidines was shown by inhibition of virus replication in MAGI-CCR5 cells. MAGI-CCR5 cells are derived from HeLa-CD4-LTR-β-galactosidase cells. The cells have been engineered to express high levels of CD4 and CCR5 and contain one copy of the HIV-1 LTR promoter driving expression of the β-galactosidase gene upon HIV-1 Tat transactivation. On the day preceding the assay, the cells were plated at 1.0×10^4 cells per well and maintained at 37° C. and 5% CO2 in a humidified incubator. Total cell count and viability was visually assessed using a hemacytometer and trypan blue exclusion.
Compounds were evaluated at six concentrations (triplicate wells/concentration). On the day of assay setup, compound dilutions were prepared at two-times (2×) the final concentrations. Media was decanted and wells were replenished with 50 μl of 2× compounds, followed by the addition of 50 μl of diluted virus. Identical uninfected assays were prepared for parallel cytotoxicity testing.
Evaluation of Dihydropyrimidines vs. HIV-1Ba-L in MAGI-CCR5 Cells

HIV-1Ba-L [3] = test: HIV-1Ba-L replication in PBMCs (supernatant RT end-point); details: HIV-1Ba-L in PBMCs, seven days, RT end-point
Method: Evaluation of Dihydropyrimidines vs. HIV-1Ba-L in Peripheral Blood Mononuclear Cells (PBMCs)
Cultures of pooled phytohemagglutinin stimulated peripheral blood mononuclear cells (PBMC) were seeded into a 96-well plate at plating density of 5×10^4 cells/well. Compounds were serially diluted into media in ½-log increments using a high test of […] and […] of each concentration (nine total concentrations). Cells were infected with HIV strains HIV-1Ba-L and NL4-3 at an MOI=0.1. The PBMCs were cultured for seven days in an humidified incubator maintained at 37° C., 5% CO2 atmosphere. At the assay end-point, the supernatant was collected and analyzed for reverse transcriptase activity. For the RT assay, tritiated thymidine triphosphate (3H-TTP, 80 Ci/mmol) was diluted 1:1 dH2O:Ethanol at 1 mCi/ml. Poly rA:oligo dT template:primer was prepared as a stock solution by combining 150 μl poly rA (20 mg/ml) with 0.5 mL oligo dT (20 units/ml) and 5.35 ml sterile dH2O followed by aliquoting (1.0 ml) and storage at −20° C. The RT reaction buffer contained of 125 ml 1.0 M EGTA, 125 ml dH2O, 125 ml 20% Triton X100, 50 ml 1.0 M Tris (pH 7.4), 50 ml 1.0 M DTT, and 40 ml 1.0 M MgCl2. The final reaction mixture was prepared by combining 1 part 3H-TTP, 4 parts dH2O, 2.5 parts poly rA:oligo dT stock and 2.5 parts reaction buffer. To each well, ten microliters of the reaction mixture and 15 μl of virus containing supernatant were added. The plates were incubated at 37° C. for 60 minutes. Following incubation, the reaction volume was spotted onto DE81 filter-mats, washed 5 times for 5 minutes each in a 5% sodium phosphate buffer or 2×SSC. […] were washed 2 times for 1 minute each in distilled water, 2 times for 1 minute each in 70% ethanol, and then dried. Incorporated radioactivity (counts per minute, CPM) was quantified using standard liquid scintillation techniques.

| Compound | CC50 at 48 h [1] | TI (TC50/IC50) (HIV-1Ba-L [2]) | IC50 (HIV-1Ba-L [2]; Human immunodeficiency virus 1) | IC50 (HIV-1Ba-L [3]) | IC50 (HIV-1Ba-L [2]) |
| --- | --- | --- | --- | --- | --- |
| COc1ccc(-c2csc(C3=C(C)NC(=O)NC3c3ccc(Cl)nc3)n2)cc1 (centres unmarked) [Example 41] | 50 to 100 µM | D (D < 10.0) | 5 to 100 µM | – | – |
| CC1=C(c2nc(-c3cccc(C#N)c3)cs2)C(c2ccc(O)cc2)NC(=O)N1 (centres unmarked) [Example 67] | 50 to 100 µM | D (D < 10.0) | 5 to 100 µM | – | – |
| CC1=C(c2nc(-c3ccc(C#N)cc3)cs2)C(c2ccc3ccccc3n2)NC(=O)N1 (centres unmarked) [Example 6] | ≥ 100 µM | C (C < 50.0 to 10.0) | 1 to 5 µM | – | – |
| CC1=C(c2nc(-c3ccc(C#N)cc3)cs2)C(c2cccc(Cl)c2)NC(=O)N1 (centres unmarked) [Example 51] | ≥ 100 µM | C (C < 50.0 to 10.0) | 5 to 100 µM | – | – |
| CC1=C(c2nc(-c3ccc(C#N)cc3)cs2)C(c2ccc(Cl)c(OC(F)(F)F)c2)NC(=O)N1 (centres unmarked) [Example 61] | ≥ 100 µM | D (D < 10.0) | 5 to 100 µM | – | – |
| CC1=C(c2nc(-c3ccc(C#N)cc3)cs2)C(Cc2ccc(C)cc2)NC(=O)N1 (centres unmarked) [Example 94] | 50 to 100 µM | C (C < 50.0 to 10.0) | 1 to 5 µM | – | – |
| CC1=C(c2nc(-c3cccc(C#N)c3)cs2)C(c2cccc(O)c2)NC(=O)N1 (centres unmarked) [Example 66] | 50 to 100 µM | D (D < 10.0) | 5 to 100 µM | – | – |
| COc1ccc(-c2csc(C3=C(C)NC(=O)NC3c3ccccc3)n2)cc1 (centres unmarked) [Example 39] | ≥ 100 µM | D (D < 10.0) | 5 to 100 µM | – | – |
| CC1=C(c2nc(-c3ccc(C#N)cc3)cs2)C(c2cncc(F)c2)NC(=O)N1 (centres unmarked) [Example 20] | ≥ 100 µM | A (A = TI (TC50/IC50) ≧ 100.0) | < 1 µM | – | – |
| CC1=C(c2nc(-c3ccc(C#N)cc3)cs2)C(c2ccncc2)NC(=O)N1 (centres unmarked) [Example 9] | ≥ 100 µM | C (C < 50.0 to 10.0) | 1 to 5 µM | – | – |
| CC1=C(c2nc(-c3ccc(C#N)cc3)cs2)C(c2ccccn2)NC(=O)N1 (centres unmarked) [Example 7] | ≥ 100 µM | C (C < 50.0 to 10.0) | 1 to 5 µM | – | – |
| CC1=C(c2nc(-c3ccc(C#N)cc3)cs2)C(c2cccc(OC(F)(F)F)c2)NC(=O)N1 (centres unmarked) [Example 62] | ≥ 100 µM | D (D < 10.0) | 5 to 100 µM | – | – |
| CC1=C(c2nc(-c3ccc(C#N)cc3)cs2)C(c2ccnc(Cl)c2)NC(=O)N1 (centres unmarked) [Example 24] | ≥ 100 µM | C (C < 50.0 to 10.0) | 5 to 100 µM | – | – |
| CC1=C(c2nc(-c3cccs3)cs2)C(c2cccc(O)c2)NC(=O)N1 (centres unmarked) [Example 37] | ≥ 100 µM | D (D < 10.0) | 5 to 100 µM | – | – |
| CC1=C(c2nc(-c3ccc(C#N)cc3)cs2)C(c2ccc(O)c(O)c2)NC(=O)N1 (centres unmarked) [Example 79] | ≥ 100 µM | A (A = TI (TC50/IC50) ≧ 100.0) | < 1 µM | – | – |
| CC1=C(c2nc(-c3ccc(C#N)cc3)cs2)C(c2cccnc2Cl)NC(=O)N1 (centres unmarked) [Example 4] | ≥ 100 µM | C (C < 50.0 to 10.0) | 1 to 5 µM | – | – |

| Compound | CC50 at 48 h [1] | TI (TC50/IC50) (HIV-1Ba-L [2]) | IC50 (HIV-1Ba-L [2]; Human immunodeficiency virus 1) | IC50 (HIV-1Ba-L [3]) | IC50 (HIV-1Ba-L [2]) |
| --- | --- | --- | --- | --- | --- |
| CC1=C(c2nc(-c3ccc(C#N)cc3)cs2)C(c2cccnc2)NC(=O)N1 (centres unmarked) [Example 8] | ≥ 100 µM | C (C < 50.0 to 10.0) | 1 to 5 µM | – | – |
| COc1ncc(C2NC(=O)NC(C)=C2c2nc(-c3ccc(C#N)cc3)cs2)c(OC)n1 (centres unmarked) [Example 32] | ≥ 100 µM | D (D < 10.0) | 5 to 100 µM | – | – |
| CC1=C(c2nc(-c3ccc(C#N)cc3)cs2)C(c2ccc(C#N)c(F)c2)NC(=O)N1 (centres unmarked) [Example 57] | ≥ 100 µM | C (C < 50.0 to 10.0) | 5 to 100 µM | – | – |
| CC1=C(c2nc(-c3ccc(C#N)cc3)cs2)C(c2ccc(F)cc2)NC(=O)N1 (centres unmarked) [Example 49] | ≥ 100 µM | C (C < 50.0 to 10.0) | 1 to 5 µM | – | – |
| COc1ncccc1C1NC(=O)NC(C)=C1c1nc(-c2ccc(C#N)cc2)cs1 (centres unmarked) [Example 27] | ≥ 100 µM | C (C < 50.0 to 10.0) | 5 to 100 µM | – | – |
| CC1=C(c2nc(-c3ccc([N+](=O)[O-])cc3)cs2)C(c2cccc(O)c2)NC(=O)N1 (centres unmarked) [Example 76] | ≥ 100 µM | A (A = TI (TC50/IC50) ≧ 100.0) | < 1 µM | – | – |
| CC1=C(c2nc(-c3ccc(C#N)cc3)cs2)C(c2cccs2)NC(=O)N1 (centres unmarked) [Example 14] | ≥ 100 µM | C (C < 50.0 to 10.0) | 5 to 100 µM | – | – |
| CC1=C(c2nc(-c3ccc(C#N)cc3)cs2)C(c2cc(O)ccc2O)NC(=O)N1 (centres unmarked) [Example 78] | ≥ 100 µM | D (D < 10.0) | 5 to 100 µM | – | – |
| CC1=C(c2nc(-c3ccc(C#N)cc3C)cs2)C(c2cccnc2F)NC(=O)N1 (centres unmarked) [Example 82] | 50 to 100 µM | A (A = TI (TC50/IC50) ≧ 100.0) | < 1 µM | – | – |
| CC1=C(c2nc(-c3ccc(C)cc3)cs2)C(c2cccc(O)c2)NC(=O)N1 (centres unmarked) [Example 73] | 50 to 100 µM | D (D < 10.0) | 5 to 100 µM | – | – |
| CC1=C(c2nc(-c3ccc(C#N)cc3)cs2)C(c2cc(=O)[nH]c(=O)[nH]2)NC(=O)N1 (centres unmarked) [Example 22] | ≥ 100 µM | D (D < 10.0) | > 100 µM | – | – |
| CC1=C(c2nc(-c3ccc(C#N)cc3)cs2)C(c2cc(Br)cs2)NC(=O)N1 (centres unmarked) [Example 13] | ≥ 100 µM | D (D < 10.0) | 5 to 100 µM | – | – |
| CC1=C(c2nc(-c3ccc(C#N)cc3)cs2)C(c2ccc(OCc3ccccc3)cc2)NC(=O)N1 (centres unmarked) [Example 52] | ≥ 100 µM | C (C < 50.0 to 10.0) | 1 to 5 µM | – | – |
| COc1ncc(C2NC(=O)NC(C)=C2c2nc(-c3ccc(C#N)cc3)cs2)cn1 (centres unmarked) [Example 31] | ≥ 100 µM | C (C < 50.0 to 10.0) | 1 to 5 µM | – | – |
| Maraviroc [reference compound] | – | – | – | 0.009 µM | 0.0006 µM |
